# Source: patent US8022091B2, “Triazole derivative” (Taisho Pharmaceutical Co., Ltd., priority 2006, dated 2011)
# Target: T1, human Edg-1 (S1P1) (Homo sapiens, UniProt P21453)
# T1 construct: expressed in transfected cells; host or cells: HEK-293
# Test: S1P1 binding assay: inhibition of [33P]-S1P binding to membrane fraction of HEK-293 cells transferred with the human Edg-1 (S1P1) gene
# Conditions: [33P]-S1P 0.1 nM, human Edg-1 (S1P1) HEK-293 membrane fraction, 1 h at 30° C.; read-out: IC50 (concentration at which binding in the absence of the test compound was inhibited by 50%)
# Experimental: The membrane fraction was obtained by treating the cells with a solubilizing buffer (1 mM Tris/HCl, pH 7.2) for 10 minutes on ice, centrifuging at 1000×g for 5 minutes to remove insoluble fractions, and then centrifuging at 40000×g for 30 minutes at 4° C. The resulting membrane fraction was dissolved in a binding buffer (20 mM Tris-HCl, pH 7.4, 100 mM NaCl, 15 mM NaF, 2 mM deoxypyridoxine, 4 mg/mL fatty acid-free BSA), and then [^33P]-S1P (manufactured by ARC, final concentration 0.1 nM) and a DMSO solution (final concentration of the compound 10^−5M, final concentration of DMSO 0.1%) of the test compound were added. Thereafter, the mixture was stirred and then treated for one hour at 30° C. Using a harvester, the membrane fraction was harvested onto unifilter-96 GF/C filter (manufactured by Perkin Elmer), washing was carried out four times with the binding buffer, and the filter was dried. Twenty five μL Microscint 0 (manufactured by Perkin Elmer) was added, and radioactivity was measured using Top Count NXT (manufactured by Packard) to calculate the amount (A) of [^33P]-S1P bound to the membrane fraction at the time when the compound was added.
# The same procedure was carried out in the absence of the test compound, and the amount (B) of [^33P]-S1P bound was calculated. Further, the same procedure was carried out in the absence of the test compound by use of HEK-293 cells to which no Edg-1 (S1P1) gene was introduced, and the background amount (C) of [^33P]-S1P bound was calculated.
# Inhibition rate (%)=[1−(A−C)/(B−C)]×100
# Further, concentrations (IC50) at the time when binding in the absence of the test compound was inhibited by 50% were calculated. The membrane system binding assay was carried out in the presence of test compounds with various concentrations, and the Edg-1 (S1P1) binding inhibition rates were calculated using the equation above. Then, IC50 values were calculated using Origin (Lightstone Corp.), a software for data analysis.
# T1 sequence (P21453 whole entry): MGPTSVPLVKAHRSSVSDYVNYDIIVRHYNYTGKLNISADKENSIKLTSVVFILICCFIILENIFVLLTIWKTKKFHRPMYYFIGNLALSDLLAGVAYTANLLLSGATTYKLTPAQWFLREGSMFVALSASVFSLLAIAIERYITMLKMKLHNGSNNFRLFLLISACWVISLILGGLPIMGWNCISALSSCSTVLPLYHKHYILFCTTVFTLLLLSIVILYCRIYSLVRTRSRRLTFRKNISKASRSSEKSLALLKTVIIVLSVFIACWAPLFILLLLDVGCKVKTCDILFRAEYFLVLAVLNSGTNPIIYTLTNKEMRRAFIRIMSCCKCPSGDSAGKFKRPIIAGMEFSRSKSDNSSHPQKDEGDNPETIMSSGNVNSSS
row,IC50 [nM],Compound
1,4.2,"CCn1c(Oc2cccc(N3CCN(C)CC3)c2)nnc1[C@@H](C)NS(=O)(=O)c1ccc(Cl)c(Cl)c1 [Compound 45, 3,4-Dichloro-N-((R)-1-[4-ethyl-5-[3-(4-methyl-piperazin-1-yl)-phenoxy]-4H-[1,2,4]triazol-3-yl]-ethyl)-benzenesulfonamide]"
2,39,"CCn1c(Nc2ccc(C)cc2)nnc1[C@@H](C)NS(=O)(=O)c1ccc(Cl)c(Cl)c1 [Compound 61, N-[(1R)-1-(4-Ethyl-5(4-methylphenylamino)-4H-[1,2,4]triazol-3-yl)ethyl]3,4-dichlorobenzenesulfonamide]"
3,≤ 10,"CCn1c(Oc2cccc(N3CCC4(CC3)OCCO4)c2)nnc1[C@@H](C)NS(=O)(=O)c1ccc(Cl)c(Cl)c1 [Compound 87, 3,4-Dichloro-N-((R)-1-[5-[3-(1,4-dioxa-8-aza-spiro[4.5]decan-8-yl)-phenoxy]-4-ethyl-4H-[1,2,4]triazol-3-yl]-ethyl)-benzenesulfonamide]"
4,5.4,"CCn1c(Oc2cccc(N3CCC(=O)CC3)c2)nnc1[C@@H](C)NS(=O)(=O)c1ccc(Cl)c(Cl)c1 [Compound 88, 3,4-Dichloro-N-((R)-1-[4-ethyl-5-[3-(4-oxo-piperidin-1-yl)-phenoxy]-4H-[1,2,4]triazol-3-yl]-ethyl)-benzenesulfonamide]"
5,18.5,CCn1c(Oc2cccc(N(CCOC)CCOC)c2)nnc1[C@@H](C)NS(=O)(=O)c1ccc(Cl)c(Cl)c1 [Compound 100]
6,≤ 10,CCn1c(Oc2ccc3cc[nH]c3c2)nnc1[C@@H](C)NS(=O)(=O)c1ccc2c(Cl)cccc2c1 [Compound 151]

# Same assay, conditions: test compound at 10 μM; inhibition of [33P]-S1P binding to the membrane fraction of HEK-293 cells expressing human Edg-1 (S1P1)
row,inhibition at 10 µM [%],Compound
1,106,"CCn1c(Oc2cccc(N3CCN(C)CC3)c2)nnc1[C@@H](C)NS(=O)(=O)c1ccc(Cl)c(Cl)c1 [Compound 45, 3,4-Dichloro-N-((R)-1-[4-ethyl-5-[3-(4-methyl-piperazin-1-yl)-phenoxy]-4H-[1,2,4]triazol-3-yl]-ethyl)-benzenesulfonamide]"
2,80.6,"CCn1c(Sc2ccc(C)cc2)nnc1[C@@H](C)NS(=O)(=O)c1ccc(Cl)c(Cl)c1 [Compound 55, 3,4-Dichloro-N-[(R)-1-(4-ethyl-5(4-methylbenzenesulfanyl)-4H-[1,2,4]triazol-3-yl)-ethyl]-benzenesulfonamide]"
3,88.3,"CCn1c(Cc2ccc(C)cc2)nnc1[C@@H](C)NS(=O)(=O)c1ccc(Cl)c(Cl)c1 [Compound 56, 3,4-Dichloro-N-[(R)-1-[4-ethyl-5(4-methylbenzyl)-4H-[1,2,4]triazol-3-yl]-ethyl]-benzenesulfonamide]"
4,102,"CCn1c(Nc2ccc(C)cc2)nnc1[C@@H](C)NS(=O)(=O)c1ccc(Cl)c(Cl)c1 [Compound 61, N-[(1R)-1-(4-Ethyl-5(4-methylphenylamino)-4H-[1,2,4]triazol-3-yl)ethyl]3,4-dichlorobenzenesulfonamide]"
5,99.9,"CCn1c(Oc2cccc(N3CCC4(CC3)OCCO4)c2)nnc1[C@@H](C)NS(=O)(=O)c1ccc(Cl)c(Cl)c1 [Compound 87, 3,4-Dichloro-N-((R)-1-[5-[3-(1,4-dioxa-8-aza-spiro[4.5]decan-8-yl)-phenoxy]-4-ethyl-4H-[1,2,4]triazol-3-yl]-ethyl)-benzenesulfonamide]"
6,99.5,"CCn1c(Oc2cccc(N3CCC(=O)CC3)c2)nnc1[C@@H](C)NS(=O)(=O)c1ccc(Cl)c(Cl)c1 [Compound 88, 3,4-Dichloro-N-((R)-1-[4-ethyl-5-[3-(4-oxo-piperidin-1-yl)-phenoxy]-4H-[1,2,4]triazol-3-yl]-ethyl)-benzenesulfonamide]"
7,110,CCn1c(Oc2cccc(N(CCOC)CCOC)c2)nnc1[C@@H](C)NS(=O)(=O)c1ccc(Cl)c(Cl)c1 [Compound 100]
8,81.8,"CCn1c(Oc2ccc(F)cc2)nnc1[C@@H](C)N(C)S(=O)(=O)c1ccc(Cl)c(Cl)c1 [Compound 115, 3,4-Dichloro-N-[(R)-1-[4-ethyl-5-(4-fluorophenoxy)-4H-[1,2,4]triazol-3-yl]-ethyl]-N-methyl-benzenesulfonamide]"
9,94.4,CCn1c(Oc2ccc(F)cc2)nnc1[C@@H](C)NS(=O)(=O)c1ccc(C)c(Cl)c1 [Compound 127]
10,92.3,CCn1c(Oc2ccc(F)cc2)nnc1[C@@H](C)NS(=O)(=O)c1ccc(C(C)=O)cc1 [Compound 154]
11,59.9,CCn1c(Oc2ccc(F)cc2)nnc1[C@@H](C)NS(=O)(=O)c1ccccc1 [Compound 155]
12,107,CCn1c(Oc2ccc(F)cc2)nnc1[C@@H](C)NS(=O)(=O)c1ccc(Br)cc1 [Compound 156]
13,74.6,CCn1c(Oc2ccc(F)cc2)nnc1[C@@H](C)NS(=O)(=O)c1ccc(C(C)(C)C)cc1 [Compound 157]
14,96.9,CCn1c(Oc2ccc(F)cc2)nnc1[C@@H](C)NS(=O)(=O)c1cccc(Br)c1 [Compound 160]
15,109,CCn1c(Oc2ccc(F)cc2)nnc1[C@@H](C)NS(=O)(=O)c1ccc(Cl)cc1 [Compound 162]
16,72.9,CCn1c(Oc2ccc(F)cc2)nnc1[C@@H](C)NS(=O)(=O)c1cccc(C#N)c1 [Compound 165]
17,113,CCn1c(Oc2ccc(F)cc2)nnc1[C@@H](C)NS(=O)(=O)c1cc(C)c(Cl)cc1C [Compound 167]
18,68.4,CCn1c(Oc2ccc(F)cc2)nnc1[C@@H](C)NS(=O)(=O)c1cc(Cl)ccc1Cl [Compound 168]
19,76,CCn1c(Oc2ccc(F)cc2)nnc1[C@@H](C)NS(=O)(=O)c1ccc(OC)c(OC)c1 [Compound 170]
20,92,CCc1ccc(S(=O)(=O)N[C@H](C)c2nnc(Oc3ccc(F)cc3)n2CC)cc1 [Compound 172]
21,97.2,CCn1c(Oc2ccc(F)cc2)nnc1[C@@H](C)NS(=O)(=O)c1ccc(F)cc1 [Compound 173]
22,52.5,CCn1c(Oc2ccc(F)cc2)nnc1C(C)(C)NS(=O)(=O)c1c(C)cc(C)cc1C [Compound 174]
23,103,"CCn1c(Oc2ccc(F)cc2)nnc1[C@@H](C)NS(=O)(=O)c1ccc(OC)cc1 [Compound 175, N-[(R)-1-[4-Ethyl-5-(4-fluorophenoxy)-4H-[1,2,4]triazol-3-yl]-ethyl]-4-methoxybenzenesulfonamide]"
24,55.3,CCn1c(Oc2ccc(F)cc2)nnc1[C@@H](C)NS(=O)(=O)c1ccc(S(C)(=O)=O)cc1 [Compound 177]
25,83,CCn1c(Oc2ccc(F)cc2)nnc1[C@@H](C)NS(=O)(=O)c1cccc2ccccc12 [Compound 179]

row,inhibition at 10 µM [%],Compound
1,94.6,CCn1c(Oc2ccc(F)cc2)nnc1[C@@H](C)NS(=O)(=O)CCc1cccc2ccccc12 [Compound 180]
2,50.4,CCn1c(Oc2ccc(F)cc2)nnc1[C@@H](C)NS(=O)(=O)c1c(F)c(F)c(F)c(F)c1F [Compound 181]
3,109,CCn1c(Oc2ccc(F)cc2)nnc1[C@@H](C)NS(=O)(=O)c1ccc(I)cc1 [Compound 182]
4,92.8,CCn1c(Oc2ccc(F)cc2)nnc1[C@@H](C)NS(=O)(=O)/C=C/c1ccccc1 [Compound 183]
5,97.3,CCn1c(Oc2ccc(F)cc2)nnc1[C@@H](C)NS(=O)(=O)c1cc(Cl)c(Cl)cc1Cl [Compound 184]
6,86.8,CCn1c(Oc2ccc(F)cc2)nnc1[C@@H](C)NS(=O)(=O)c1ccc(C)cc1 [Compound 186]
7,107,CCn1c(Oc2ccc(F)cc2)nnc1[C@@H](C)NS(=O)(=O)c1cccc(C(F)(F)F)c1 [Compound 188]
8,99.7,CCn1c(Oc2ccc(F)cc2)nnc1[C@@H](C)NS(=O)(=O)c1ccccc1C [Compound 189]
9,87.9,CCn1c(Oc2ccc(F)cc2)nnc1[C@@H](C)NS(=O)(=O)c1ccc(OC(F)(F)F)cc1 [Compound 190]
10,96.9,C=Cc1ccc(S(=O)(=O)N[C@H](C)c2nnc(Oc3ccc(F)cc3)n2CC)cc1 [Compound 191]
11,95.2,CCn1c(Oc2ccc(F)cc2)nnc1[C@@H](C)NS(=O)(=O)c1cccc(C)c1 [Compound 192]
12,80.7,CCn1c(Oc2ccc(F)cc2)nnc1[C@@H](C)NS(=O)(=O)c1ccc2c(c1)CN(C(=O)C(F)(F)F)CC2 [Compound 194]
13,90.1,CCn1c(Oc2ccc(F)cc2)nnc1[C@@H](C)NS(=O)(=O)c1cc(C)ccc1C [Compound 195]
14,65.6,CCn1c(Oc2ccc(F)cc2)nnc1[C@@H](C)NS(=O)(=O)c1ccc(-c2csnn2)s1 [Compound 196]
15,84.3,CCn1c(Oc2ccc(F)cc2)nnc1[C@@H](C)NS(=O)(=O)c1ccc(C(=O)OC)n1C [Compound 201]
16,85.4,CCCc1ccc(S(=O)(=O)N[C@H](C)c2nnc(Oc3ccc(F)cc3)n2CC)cc1 [Compound 206]
17,108,CCn1c(Oc2ccc(F)cc2)nnc1[C@@H](C)NS(=O)(=O)c1ccc(Cl)c(Cl)c1Cl [Compound 207]
18,80.2,CCn1c(Oc2ccc(F)cc2)nnc1C(C)(C)NS(=O)(=O)c1c(C)c(C)cc(C)c1C [Compound 208]
19,91.4,CCn1c(Oc2ccc(F)cc2)nnc1[C@@H](C)NS(=O)(=O)c1cccc(Cl)c1Cl [Compound 209]
20,69.7,CCn1c(Oc2ccc(F)cc2)nnc1[C@@H](C)NS(=O)(=O)c1cc(C(F)(F)F)cc(C(F)(F)F)c1 [Compound 212]
21,102,CCn1c(Oc2ccc(F)cc2)nnc1[C@@H](C)NS(=O)(=O)c1cc(Cl)cc(Cl)c1 [Compound 213]
22,102,CCn1c(Oc2ccc(F)cc2)nnc1[C@@H](C)NS(=O)(=O)c1cccc(Cl)c1C [Compound 214]
23,91.4,CCn1c(Oc2ccc(F)cc2)nnc1[C@@H](C)NS(=O)(=O)c1cccc(OC)c1 [Compound 215]
24,88.9,CCn1c(Oc2ccc(F)cc2)nnc1[C@@H](C)NS(=O)(=O)c1cc(F)c(Br)cc1F [Compound 216]
25,74.7,CCn1c(Oc2ccc(F)cc2)nnc1[C@@H](C)NS(=O)(=O)c1cc(Br)ccc1OC [Compound 218]
